# Measured values as given in US9758492B2, “IDO inhibitors” (Bristol-Myers Squibb Company, priority 2013, dated 2017).
# Biological target: IDO (Homo sapiens, UniProt P14902)
# Experiment: LLE_IDO_ABS_DR (IDO assay)
# Sequence of IDO (P14902 whole entry): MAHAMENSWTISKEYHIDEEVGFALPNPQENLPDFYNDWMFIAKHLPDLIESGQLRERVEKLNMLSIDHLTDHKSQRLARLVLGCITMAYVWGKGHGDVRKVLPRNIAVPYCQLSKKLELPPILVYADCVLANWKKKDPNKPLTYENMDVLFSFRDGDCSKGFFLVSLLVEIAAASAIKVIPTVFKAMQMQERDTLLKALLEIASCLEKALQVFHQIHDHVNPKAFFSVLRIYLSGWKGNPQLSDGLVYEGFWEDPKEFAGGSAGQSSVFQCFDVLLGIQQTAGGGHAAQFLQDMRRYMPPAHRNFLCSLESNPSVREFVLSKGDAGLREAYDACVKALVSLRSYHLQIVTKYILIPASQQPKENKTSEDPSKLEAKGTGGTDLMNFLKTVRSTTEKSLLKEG
row,Structure (SMILES),IC50 [nM]
1,"CC(C)CN(CC(C)C)c1ccc(-c2ccccc2-c2nnn[nH]2)cc1NC(=O)Nc1ccc(-c2cnco2)cc1 [Example 255, 1-(4-(diisobutylamino)-2′-(1H-tetrazol-5-yl)-[1,1′-biphenyl]-3-yl)-3-(4-(oxazol-5-yl)phenyl)urea]",30
2,"CC(C)CN(CC(C)C)c1ccc(-c2ccccc2-c2nnn[nH]2)cc1NC(=O)Nc1ccccc1-n1cncn1 [Example 256, 1-(2-(1H-1,2,4-triazol-1-yl)phenyl)-3-(4-(diisobutylamino)-2′-(1H-tetrazol-5-yl)-[1,1′-biphenyl]-3-yl)urea]",4180
3,"CC(C)CN(CC(C)C)c1ccc(-c2ccccc2-c2nnn[nH]2)cc1NC(=O)Nc1ccc2sccc2c1 [Example 259, 1-(benzo[b]thiophen-5-yl)-3-(4-(diisobutylamino)-2′-(1H-tetrazol-5-yl)-[1,1′-biphenyl]-3-yl)urea]",2.44
4,"COc1cc(NC(=O)Nc2cc(-c3ccccc3-c3nnn[nH]3)ccc2N(CC(C)C)CC(C)C)ccc1C#N [Example 261, 1-(4-cyano-3-methoxyphenyl)-3-(4-(diisobutylamino)-2′-(1H-tetrazol-5-yl)-[1,1′-biphenyl]-3-yl)urea]",4310
5,"CC(C)CN(CC(C)C)c1ccc(-c2ccccc2-c2nnn[nH]2)cc1NC(=O)Nc1cccc(N(C)C)c1 [Example 262, 1-(4-(diisobutylamino)-2′-(1H-tetrazol-5-yl)-[1,1′-biphenyl]-3-yl)-3-(3-(dimethylamino)phenyl)urea]",190
6,"CC(C)CN(CC(C)C)c1ccc(-c2ccccc2-c2nnn[nH]2)cc1NC(=O)Nc1cccc(F)c1F [Example 263, 1-(2,3-difluorophenyl)-3-(4-(diisobutylamino)-2′-(1H-tetrazol-5-yl)-[1,1′-biphenyl]-3-yl)urea]",7.97
7,"Cc1ccc(NC(=O)Nc2cc(-c3ccccc3-c3nnn[nH]3)ccc2N(CC(C)C)CC(C)C)c(F)c1 [Example 264, 1-(4-(diisobutylamino)-2′-(1H-tetrazol-5-yl)-[1,1′-biphenyl]-3-yl)-3-(2-fluoro-4-methylphenyl)urea]",2.61
8,"CC(C)CN(CC(C)C)c1ccc(-c2ccccc2-c2nnn[nH]2)cc1NC(=O)Nc1cccc(-n2ccnc2)c1 [Example 267, 1-(3-(1H-imidazol-1-yl)phenyl)-3-(4-(diisobutylamino)-2′-(1H-tetrazol-5-yl)-[1,1′-biphenyl]-3-yl)urea]",1460
9,"CC(C)CN(CC(C)C)c1ccc(-c2ccccc2-c2nnn[nH]2)cc1NC(=O)NCC1CCCCC1 [Example 268, 1-(cyclohexylmethyl)-3-(4-(diisobutylamino)-2′-(1H-tetrazol-5-yl)-[1,1′-biphenyl]-3-yl)urea]",830
10,"CC(C)CN(CC(C)C)c1ccc(-c2ccccc2-c2nnn[nH]2)cc1NC(=O)Nc1ccccc1N1CCCCC1 [Example 270, 2-(4-(diisobutylamino)-2′-(1H-tetrazol-5-yl)-[1,1′-biphenyl]-3-yl)-3-(2-(piperidin-1-yl)phenyl)urea]",1830
11,"CC(C)CN(CC(C)C)c1ccc(-c2ccccc2-c2nnn[nH]2)cc1NC(=O)Nc1ccc(F)c(C(F)(F)F)c1 [Example 271, 1-(4-(diisobutylamino)-2′-(1H-tetrazol-5-yl)-[1,1′-biphenyl]-3-yl)-3-(4-fluoro-3-(trifluoromethyl)phenyl) urea]",1010
12,"CC(C)CN(CC(C)C)c1ccc(-c2ccccc2-c2nnn[nH]2)cc1NC(=O)Nc1ccc(F)cc1OC(C)C [Example 272, 1-(4-(diisobutylamino)-2′-(1H-tetrazol-5-yl)-[1,1′-biphenyl]-3-yl)-3-(4-fluoro-2-isopropoxyphenyl)urea]",2720
13,"CC(C)CN(CC(C)C)c1ccc(-c2ccccc2-c2nnn[nH]2)cc1NC(=O)Nc1ccccc1C1CC1 [Example 274, 1-(2-cyclopropylphenyl)-3-(4-(diisobutylamino)-2′-(1H-tetrazol-5-yl)-[1,1′-biphenyl]-3-yl)urea]",460
14,"CC(C)CN(CC(C)C)c1ccc(-c2ccccc2-c2nnn[nH]2)cc1NC(=O)Nc1cccc(F)c1O [Example 275, 1-(4-(diisobutylamino)-2′-(1H-tetrazol-5-yl)-[1,1′-biphenyl]-3-yl)-3-(3-fluoro-2-hydroxyphenyl)urea]",500
15,"CC(C)CN(CC(C)C)c1ccc(-c2ccccc2-c2nnn[nH]2)cc1NC(=O)Nc1cccc2c1CCC2 [Example 276, 1-(2,3-dihydro-1H-inden-4-yl)-3-(4-(diisobutylamino)-2′-(1H-tetrazol-5-yl)-[1,1′-biphenyl]-3-yl)urea]",780
16,"C#Cc1ccccc1NC(=O)Nc1cc(-c2ccccc2-c2nnn[nH]2)ccc1N(CC(C)C)CC(C)C [Example 277, 1-(4-(diisobutylamino)-2′-(1H-tetrazol-5-yl)-[1,1′-biphenyl]-3-yl)-3-(2-ethynylphenyl)urea]",160
17,"CC(C)CN(CC(C)C)c1ccc(-c2ccccc2-c2nnn[nH]2)cc1NC(=O)Nc1ccccc1OC(F)F [Example 280, 1-(2-(difluoromethoxy)phenyl)-3-(4-(diisobutylamino)-2′-(1H-tetrazol-5-yl)biphenyl-3-yl)urea]",2390
18,"CC(C)CN(CC(C)C)c1ccc(-c2ccccc2-c2nnn[nH]2)cc1NC(=O)Nc1c(F)cc(F)cc1F [Example 282, 1-(4-(diisobutylamino)-2′-(1H-tetrazol-5-yl)-[1,1′-biphenyl]-3-yl)-3-(2,4,6-trifluorophenyl)urea]",8.2
19,"CC(C)CN(CC(C)C)c1ccc(-c2ccccc2-c2nn[nH]n2)cc1NC(=O)Nc1c(F)cccc1F [Example 283, 1-(2,6-difluorophenyl)-3-(4-(diisobutylamino)-2′-(2H-tetrazol-5-yl)-[1,1′-biphenyl]-3-yl)urea]",10
20,"CC(C)CN(CC(C)C)c1ccc(-c2ccccc2-c2nnn[nH]2)cc1NC(=O)Nc1ccc(N=[N+]=[N-])cc1 [Example 285, 1-(4-azidophenyl)-3-(4-(diisobutylamino)-2′-(1H-tetrazol-5-yl)-[1,1′-biphenyl]-3-yl)urea]",2.28
21,"CC(C)CN(CC(C)C)c1ccc(-c2ccccc2-c2nnn[nH]2)cc1NC(=O)Nc1ccc(F)c(Cl)c1 [Example 286, 1-(3-chloro-4-fluorophenyl)-3-(4-(diisobutylamino)-2′-(1H-tetrazol-5-yl)biphenyl-3-yl)urea]",110
22,"Cc1ccc(NC(=O)Nc2cc(-c3ccccc3-c3nnn[nH]3)ccc2N(CC(C)C)CC(C)C)cc1F [Example 287, 1-(4-(diisobutylamino)-2′-(1H-tetrazol-5-yl)-[1,1′-biphenyl]-3-yl)-3-(3-fluoro-4-methylphenyl)urea]",4.47

# Further compounds by falling IC50, results first:
row,IC50 [nM],Structure (SMILES)
1,6070,"CC(C)CN(CC(C)C)c1ccc(-c2ccccc2-c2nnn[nH]2)cc1NC(=O)Nc1cc(C(N)=O)ccc1Cl [Example 254, 4-chloro-3-(3-(4-(diisobutylamino)-2′-(1H-tetrazol-5-yl)-[1,1′-biphenyl]-3-yl)ureido)benzamide]"
2,5050,"CC(C)CN(CC(C)C)c1ccc(-c2ccccc2-c2nnn[nH]2)cc1NC(=O)Nc1ccc(F)c(S(C)(=O)=O)c1 [Example 279, 1-(4-(diisobutylamino)-2′-(1H-tetrazol-5-yl)-[1,1′-biphenyl]-3-yl)-3-(4-fluoro-3-(methylsulfonyl)phenyl) urea]"
3,4490,"CC(C)CN(CC(C)C)c1ccc(-c2ccccc2-c2nnn[nH]2)cc1NC(=O)Nc1cccc(S(N)(=O)=O)c1 [Example 266, 3-(3-(4-(diisobutylamino)-2′-(1H-tetrazol-5-yl)-[1,1′-biphenyl]-3-yl)ureido) benzenesulfonamide]"
4,2490,"CC(C)CN(CC(C)C)c1ccc(-c2ccccc2-c2nnn[nH]2)cc1NC(=O)Nc1cccc(-c2cnco2)c1 [Example 253, 1-(4-(diisobutylamino)-2′-(1H-tetrazol-5-yl)-[1,1′-biphenyl]-3-yl)-3-(3-(oxazol-5-yl)phenyl)urea]"
5,2090,"CC(C)CN(CC(C)C)c1ccc(-c2ccccc2-c2nnn[nH]2)cc1NC(=O)Nc1ccc(S(C)(=O)=O)cc1F [Example 284, 1-(4-(diisobutylamino)-2′-(1H-tetrazol-5-yl)-[1,1′-biphenyl]-3-yl)-3-(2-fluoro-4-(methylsulfonyl)phenyl)urea]"
6,1450,"COc1ccccc1NC(=O)Nc1cc(-c2ccccc2-c2nnn[nH]2)ccc1N(CC(C)C)CC(C)C [Example 281, 1-(4-(diisobutylamino)-2′-(1H-tetrazol-5-yl)biphenyl-3-yl)-3-(2-methoxyphenyl)urea]"
7,1230,"COc1cc(NC(=O)Nc2cc(-c3ccccc3-c3nnn[nH]3)ccc2N(CC(C)C)CC(C)C)ccc1F [Example 252, 1-(4-(diisobutylamino)-2′-(1H-tetrazol-5-yl)-[1,1′-biphenyl]-3-yl)-3-(4-fluoro-3-methoxyphenyl)urea]"
8,250,"C#CCOc1ccccc1NC(=O)Nc1cc(-c2ccccc2-c2nnn[nH]2)ccc1N(CC(C)C)CC(C)C [Example 269, 1-(4-(diisobutylamino)-2′-(2H-tetrazol-5-yl)-[1,1′-biphenyl]-3-yl)-3-(2-(prop-2-yn-1-yloxy)phenyl)urea]"
9,180,"CC(C)CN(CC(C)C)c1ccc(-c2ccccc2-c2nnn[nH]2)cc1NC(=O)Nc1cccc(OC(F)(F)F)c1 [Example 273, 1-(4-(diisobutylamino)-2′-(1H-tetrazol-5-yl)-[1,1′-biphenyl]-3-yl)-3-(3-(trifluoromethoxy)phenyl)urea]"
10,90,"CC(C)CN(CC(C)C)c1ccc(-c2ccccc2-c2nnn[nH]2)cc1NC(=O)Nc1ccc(F)c(Br)c1 [Example 258, 1-(3-bromo-4-fluorophenyl)-3-(4-(diisobutylamino)-2′-(1H-tetrazol-5-yl)-[1,1′-biphenyl]-3-yl)urea]"
11,6.48,CC(C)CN(CC(C)C)c1ccc(-c2ccccc2-c2nnn[nH]2)cc1NC(=O)Nc1ccc(C#N)cc1F [Example 260]
12,2.73,"CC(C)CN(CC(C)C)c1ccc(-c2ccccc2-c2nnn[nH]2)cc1NC(=O)Nc1cccc(N=[N+]=[N-])c1 [Example 257, 1-(3-azidophenyl)-3-(4-(diisobutylamino)-2′-(1H-tetrazol-5-yl)-[1,1′-biphenyl]-3-yl)urea]"
13,1.31,"C#Cc1ccc(NC(=O)Nc2cc(-c3ccccc3-c3nnn[nH]3)ccc2N(CC(C)C)CC(C)C)cc1 [Example 278, 1-(4-(diisobutylamino)-2′-(1H-tetrazol-5-yl)-[1,1′-biphenyl]-3-yl)-3-(4-ethynylphenyl)urea]"
